Key:
Venetoclax = compound: CC1(C)CCC(CN2CCN(c3ccc(C(=O)NS(=O)(=O)c4ccc(NCC5CCOCC5)c([N+](=O)[O-])c4)c(Oc4cnc5[nH]ccc5c4)c3)CC2)=C(c2ccc(Cl)cc2)C1 [Venetoclax]; details: max 1 µM
Outline: (§1)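 Viability was measured with CellTiter-Glo 2.0 luminescence after 72 hours of dosing at a final DMSO of typically 0.2%, and scaled between blank-well and DMSO-well means. Beforehand, cancer cell lines sat 24 hours at 37°C and 5% CO2 in 1536-well plates in 7.5 μl DMEM/F12 or RPMI with 10% FBS. A non-linear mixed effects model fitted two-parameter logistic curves to the dose responses. The single-agent IC50 comes from these fits.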

Olaparib = compound: O=C(c1cc(Cc2n[nH]c(=O)c3ccccc23)ccc1F)N1CCN(C(=O)C2CC2)CC1 [Olaparib]; details: max 10 µM
Outline: as §1

AZD2811 = compound: CCN(CCO)CCCOc1ccc2c(Nc3cc(CC(=O)Nc4cccc(F)c4)[nH]n3)ncnc2c1 [AZD2811]; details: max 1 µM
Outline: as §1

Prexasertib = compound: COc1cccc(OCCCN)c1-c1cc(Nc2cnc(C#N)cn2)n[nH]1 [Prexasertib]; details: max 1 µM
Outline: as §1

Doxorubicin = compound: COc1cccc2c1C(=O)c1c(O)c3c(c(O)c1C2=O)C[C@@](O)(C(=O)CO)C[C@@H]3O[C@H]1C[C@H](N)[C@H](O)[C@H](C)O1 [Doxorubicin]; details: max 1 µM
Outline: as §1

Selumetinib = compound: Cn1cnc2c(F)c(Nc3ccc(Br)cc3Cl)c(C(=O)NOCCO)cc21 [Selumetinib]; details: max 10 µM
Outline: as §1

AZD5991 = compound: Cc1c2c(nn1C)CSCc1cc(n(C)n1)CSc1cc(c3ccccc3c1)OCCCc1c(C(=O)O)n(C)c3c-2c(Cl)ccc13 [AZD5991]; details: max 1 µM
Outline: as §1

Crizotinib = compound: C[C@@H](Oc1cc(-c2cnn(C3CCNCC3)c2)cnc1N)c1c(Cl)ccc(F)c1Cl [Crizotinib]; details: max 10 µM
Outline: as §1

AZD0156 = compound: CN(C)CCCOc1ccc(-c2ccc3ncc4c(c3c2)n(C2CCOCC2)c(=O)n4C)cn1 [AZD0156]; details: max 3 µM
Outline: as §1

SN-38 = compound: CCc1c2c(nc3ccc(O)cc13)-c1cc3c(c(=O)n1C2)COC(=O)[C@]3(O)CC [SN-38]; details: max 0.3 µM
Outline: as §1

AZD1775 = compound: C=CCn1c(=O)c2cnc(Nc3ccc(N4CCN(C)CC4)cc3)nc2n1-c1cccc(C(C)(C)O)n1 [AZD1775]; details: max 3 µM
Outline: as §1

Gefitinib = compound: COc1cc2ncnc(Nc3ccc(F)c(Cl)c3)c2cc1OCCCN1CCOCC1 [Gefitinib]; details: max 10 µM
Outline: as §1

Palbociclib = compound: CC(=O)c1c(C)c2cnc(Nc3ccc(N4CCNCC4)cn3)nc2n(C2CCCC2)c1=O [Palbociclib]; details: max 10 µM
Outline: as §1

AZD7648 = compound: Cc1cc2ncnn2cc1Nc1ncc2c(n1)n(C1CCOCC1)c(=O)n2C [AZD7648]; details: max 10 µM
Outline: as §1

Capivasertib = compound: C1CN(CCC1(C(=O)N[C@@H](CCO)C2=CC=C(C=C2)Cl)N)C3=NC=NC4=C3C=CN4 [Capivasertib]; details: max 10 µM
Outline: as §1

Savolitinib = compound: C[C@@H](c1ccc2nccn2c1)n1nnc2ncc(-c3cnn(C)c3)nc21 [Savolitinib]; details: max 1 µM
Outline: as §1

AZD4320 = compound: CN(CC[C@H](CSC1=CC=CC=C1)NC2=C(C=C(C=C2)S(=O)(=O)NC(=O)C3=CC=C(C=C3)N4CCC(CC4)[C@H](C5=CC=CC=C5C6=CC=C(C=C6)Cl)O)S(=O)(=O)C(F)(F)F)CCO [AZD4320]; details: max 1 µM
Outline: as §1

Alisertib = compound: COc1cc(Nc2ncc3c(n2)-c2ccc(Cl)cc2C(c2c(F)cccc2OC)=NC3)ccc1C(=O)O [Alisertib]; details: max 10 µM
Outline: as §1

AZD8186 = compound: C[C@@H](Nc1cc(F)cc(F)c1)c1cc(C(=O)N(C)C)cc2c(=O)cc(N3CCOCC3)oc12 [AZD8186]; details: max 3 µM
Outline: as §1

AZD6738 = compound: C[C@@H]1COCCN1C2=NC(=NC(=C2)C3(CC3)[S@](=N)(=O)C)C4=C5C=CNC5=NC=C4 [AZD6738]; details: max 10 µM
Outline: as §1

SG3199 = compound: CC1=CN2[C@@H](C1)C=NC3=CC(=C(C=C3C2=O)OC)OCCCCCOC4=C(C=C5C(=C4)N=C[C@@H]6CC(=CN6C5=O)C)OC [SG3199]; details: max 0.001 µM
Outline: as §1

Dasatinib = compound: CC1=C(C(=CC=C1)Cl)NC(=O)C2=CN=C(S2)NC3=CC(=NC(=N3)C)N4CCN(CC4)CCO [Dasatinib]; details: max 2 µM
Outline: as §1

Lapatinib = compound: CS(=O)(=O)CCNCc1ccc(-c2ccc3ncnc(Nc4ccc(OCc5cccc(F)c5)c(Cl)c4)c3c2)o1 [Lapatinib]; details: max 10 µM
Outline: as §1

Taselisib = compound: Cc1nc(-c2cn3c(n2)-c2ccc(-c4cnn(C(C)(C)C(N)=O)c4)cc2OCC3)n(C(C)C)n1 [Taselisib]; details: max 10 µM
Outline: as §1

AZD1390 = compound: CC(C)n1c(=O)n(C)c2cnc3cc(F)c(-c4ccc(OCCCN5CCCCC5)nc4)cc3c21 [AZD1390]; details: max 0.3 µM
Outline: as §1

AZD5153 = compound: COc1nnc2ccc(N3CCC(c4ccc(OCCN5CCN(C)C(=O)[C@H]5C)cc4)CC3)nn12 [AZD5153]; details: max 1 µM
Outline: as §1

Trametinib = compound: CC(=O)Nc1cccc(-n2c(=O)n(C3CC3)c(=O)c3c(Nc4ccc(I)cc4F)n(C)c(=O)c(C)c32)c1 [Trametinib]; details: max 1 µM
Outline: as §1

MK-2206 = compound: NC1(c2ccc(-c3nc4ccn5c(=O)[nH]nc5c4cc3-c3ccccc3)cc2)CCC1 [MK-2206]; details: max 10 µM
Outline: as §1

Cell Line | IC50, cell viability 72 h (Venetoclax) [nM] | IC50, cell viability 72 h (Olaparib) [nM] | IC50, cell viability 72 h (AZD2811) [nM] | IC50, cell viability 72 h (Prexasertib) [nM] | IC50, cell viability 72 h (Doxorubicin) [nM] | IC50, cell viability 72 h (Selumetinib) [nM] | IC50, cell viability 72 h (AZD5991) [nM] | IC50, cell viability 72 h (Crizotinib) [nM] | IC50, cell viability 72 h (AZD0156) [nM] | IC50, cell viability 72 h (SN-38) [nM] | IC50, cell viability 72 h (AZD1775) [nM] | IC50, cell viability 72 h (Gefitinib) [nM] | IC50, cell viability 72 h (Palbociclib) [nM] | IC50, cell viability 72 h (AZD7648) [nM] | IC50, cell viability 72 h (Capivasertib) [nM] | IC50, cell viability 72 h (Savolitinib) [nM] | IC50, cell viability 72 h (AZD4320) [nM] | IC50, cell viability 72 h (Alisertib) [nM] | IC50, cell viability 72 h (AZD8186) [nM] | IC50, cell viability 72 h (AZD6738) [nM] | IC50, cell viability 72 h (SG3199) [nM] | IC50, cell viability 72 h (Dasatinib) [nM] | IC50, cell viability 72 h (Lapatinib) [nM] | IC50, cell viability 72 h (Taselisib) [nM] | IC50, cell viability 72 h (AZD1390) [nM] | IC50, cell viability 72 h (AZD5153) [nM] | IC50, cell viability 72 h (Trametinib) [nM] | IC50, cell viability 72 h (MK-2206) [nM]
LB771-HNC (Head and Neck Carcinoma) | > 1000 | > 10000 | > 1000 | 367 | > 1000 | > 10000 | > 1000 | > 10000 | > 3000 | > 300 | 742 | > 10000 | > 10000 | > 10000 | > 10000 | > 1000 | > 1000 | 6250 | > 3000 | > 10000 | > 1 | > 2000 | > 10000 | 2670 | > 300 | > 1000 | > 1000 | –
MHH-PREB-1 (B-Cell Non-Hodgkin's Lymphoma) | > 1000 | > 10000 | > 1000 | 8.91 | 317 | > 10000 | > 1000 | 8080 | > 3000 | 58.4 | 935 | > 10000 | > 10000 | > 10000 | > 10000 | > 1000 | > 1000 | > 10000 | > 3000 | 2080 | > 1 | > 2000 | > 10000 | > 10000 | > 300 | 756 | > 1000 | –
NCI-H747 (Colorectal Carcinoma) | > 1000 | > 10000 | > 1000 | > 1000 | > 1000 | 309 | > 1000 | > 10000 | > 3000 | > 300 | 2510 | > 10000 | > 10000 | > 10000 | 4660 | > 1000 | > 1000 | > 10000 | > 3000 | > 10000 | > 1 | 542 | > 10000 | 2380 | > 300 | 101 | 5.4 | 2200
OVCAR-8 (Ovarian Carcinoma) | > 1000 | > 10000 | > 1000 | 13.4 | 257 | > 10000 | > 1000 | > 10000 | > 3000 | 18.7 | 1370 | > 10000 | > 10000 | > 10000 | > 10000 | > 1000 | > 1000 | 7630 | > 3000 | 6140 | > 1 | 1540 | > 10000 | > 10000 | > 300 | 198 | > 1000 | –
SW626 (Colorectal Carcinoma) | > 1000 | > 10000 | > 1000 | 127 | > 1000 | 2810 | > 1000 | > 10000 | > 3000 | > 300 | 1490 | > 10000 | > 10000 | > 10000 | > 10000 | > 1000 | > 1000 | > 10000 | > 3000 | > 10000 | > 1 | > 2000 | > 10000 | > 10000 | > 300 | 150 | 111 | –
TE-4 (Esophageal Squamous Cell Carcinoma) | > 1000 | > 10000 | > 1000 | 334 | > 1000 | > 10000 | > 1000 | > 10000 | > 3000 | > 300 | 1020 | 990 | > 10000 | > 10000 | 2910 | > 1000 | > 1000 | > 10000 | > 3000 | > 10000 | > 1 | > 2000 | 264 | 381 | > 300 | > 1000 | 125 | –
UMC-11 (Other Solid Carcinomas) | > 1000 | > 10000 | 103 | 57.5 | > 1000 | > 10000 | > 1000 | 5910 | > 3000 | > 300 | > 3000 | > 10000 | > 10000 | > 10000 | > 10000 | > 1000 | > 1000 | 1210 | > 3000 | > 10000 | > 1 | > 2000 | > 10000 | > 10000 | > 300 | 289 | > 1000 | –

— the supplement of paper PMC11061612
